Test systems include COLO 205; NCI-H522; OVCAR-8; DLD-1; SK-OV-3; SN12C; HCT-116; EKVX; A549; MOLT-4; UACC-257; SNB-75; OVCAR-4; SF-295; SR; Malme-3M; MDA-MB-231; PC-3; T47D; MDA-N.
What all share (experiment): NCI anticancer screen, dose series, 48 h

The results in this text go back to ChEMBL document CHEMBL1201862, “PubChem BioAssay data set” (2004).

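These data come from cells grown in 96-well plates and exposed to compound for 48 hours at five concentrations. The concentration for 50% growth inhibition is given as GI50.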 Active and inactive are the calls of the source. Rule as the data show it: active = GI50 up to about 1.1 µM and inactive = higher. A value given as a limit tells only on which side of the number the result lay.

As to `Cc1nc2ccccc2c(=O)n1/N=C(\N=N\c1cc(Cl)ccc1Cl)c1ccc(N(C)C)cc1`, the GI50 was 78.3 µM (inactive) in the experiment with COLO 205; 25 µM (inactive) in the experiment with NCI-H522; 40.9 µM (inactive) in the experiment on OVCAR-8; 62.7 µM (inactive) in the experiment on DLD-1; 28.2 µM (inactive) in the experiment with SK-OV-3; 58.6 µM (inactive) in the experiment with SN12C. Also, the GI50 in the experiment on HCT-116 was 32.3 µM (inactive); in the experiment on EKVX it was 45.3 µM (inactive); with A549 it was > 100 µM (inactive); with MOLT-4, 25.2 µM (inactive).

Turning to `CCOC(=O)Cc1nc(/C(C#N)=C/c2ccco2)[nH]c(=O)c1C#N`, the GI50 with COLO 205 was 33.5 µM (inactive); in the experiment with NCI-H522, 39.2 µM (inactive); in the experiment with UACC-257 it was > 100 µM (inactive); in the experiment on SNB-75, > 100 µM (inactive); in the experiment with OVCAR-4, > 100 µM (inactive); with SF-295, 43.9 µM (inactive). Besides, the GI50 in the experiment with OVCAR-8, in the experiment with DLD-1, in the experiment on SK-OV-3, in the experiment on SN12C, with HCT-116 and in the experiment with EKVX was > 100 µM (inactive) each time. The figures for the GI50 with A549, with MOLT-4 and with SR were > 100 µM (inactive), > 100 µM (inactive) and 97.1 µM (inactive), respectively.

As to `CC(=O)N(/N=C\c1ccc([N+](=O)[O-])cc1)c1ccccc1`, the GI50 is > 100 µM (inactive) with COLO 205; > 100 µM (inactive) with UACC-257; > 100 µM (inactive) in the experiment on Malme-3M; 48.3 µM (inactive) in the experiment with SNB-75; > 100 µM (inactive) in the experiment with OVCAR-4; > 100 µM (inactive) in the experiment with SF-295. Moreover, the GI50 in the experiment with OVCAR-8, in the experiment with DLD-1, in the experiment with SK-OV-3, in the experiment with SN12C, in the experiment with HCT-116 and with EKVX was > 100 µM (inactive) each time. Moreover, in the experiment with A549, the GI50 was > 100 µM (inactive).

In the case of `Cc1c[nH]c2c1C13CC1CN(C(=O)c1cc4cc(NC(=O)c5cc6ccccc6o5)ccc4[nH]1)C3=CC2=O` (configuration not stated), the GI50 with COLO 205, with NCI-H522, in the experiment on UACC-257, with Malme-3M, in the experiment with SNB-75 and with OVCAR-4 was < 0.001 µM (active) in each case. The GI50 with SF-295, with OVCAR-8, in the experiment on DLD-1, in the experiment on SN12C, in the experiment on HCT-116 and with MOLT-4 was < 0.001 µM (active) throughout. The GI50 in the experiment on SR was < 0.001 µM (active).

With `CCOC(=O)C1=C(Nc2ccc(Cl)c(Cl)c2)OC/C1=N\NS(=O)(=O)c1ccc(C)cc1`, the GI50 in the experiment with COLO 205 is > 100 µM (inactive); in the experiment with NCI-H522 it was 29 µM (inactive); in the experiment on UACC-257 it was 18.2 µM (inactive); with Malme-3M, 67.8 µM (inactive); in the experiment with SNB-75, 35.8 µM (inactive); in the experiment on OVCAR-4, 63.5 µM (inactive). The GI50 with SF-295 is > 100 µM (inactive); in the experiment with OVCAR-8 it was 75.2 µM (inactive); in the experiment on DLD-1, 39.8 µM (inactive); in the experiment with SK-OV-3, 75.7 µM (inactive); with SN12C, 57.8 µM (inactive); in the experiment on HCT-116, 22.8 µM (inactive). The GI50 in the experiment on EKVX was 58.1 µM (inactive); in the experiment with A549, 52.2 µM (inactive); in the experiment with MOLT-4 it was 26.3 µM (inactive).

As to `O=C1c2cccc([N+](=O)[O-])c2C(=O)c2nccnc21`, the GI50 in the experiment with NCI-H522 was 1.36 µM (inactive); in the experiment with UACC-257, 0.502 µM (active); in the experiment on Malme-3M, 1.63 µM (inactive); in the experiment on SNB-75 it was 1.07 µM (active); in the experiment on OVCAR-4 it was 1.42 µM (inactive); with SF-295, 1.82 µM (inactive). Further, the GI50 in the experiment with OVCAR-8 was 2.25 µM (inactive); in the experiment with DLD-1 it was 2.84 µM (inactive); in the experiment with SN12C, 1.66 µM (inactive); with HCT-116, 1.63 µM (inactive); with EKVX, 1.81 µM (inactive); with A549 it was 1.66 µM (inactive). Also, the GI50 with MOLT-4 is 2.5 µM (inactive); with SR, 2.05 µM (inactive).

On to `COC(=O)C(C(=O)C(=O)Nc1ccccc1C(C)=O)c1nc2ccc(Cl)cc2nc1O` (configuration not stated), for which the GI50 in the experiment on COLO 205 is > 100 µM (inactive); in the experiment on UACC-257 it was > 100 µM (inactive); in the experiment with Malme-3M, > 100 µM (inactive); in the experiment with SNB-75, 99.5 µM (inactive); in the experiment on OVCAR-4, > 100 µM (inactive); with SF-295, > 100 µM (inactive). The GI50 with OVCAR-8 was > 100 µM (inactive); in the experiment on DLD-1, > 100 µM (inactive); in the experiment on SK-OV-3 it was > 100 µM (inactive); in the experiment on SN12C, > 100 µM (inactive); with HCT-116, > 100 µM (inactive); with EKVX, 56.9 µM (inactive). For the same molecule, the GI50 in the experiment on A549 and with MOLT-4 was > 100 µM (inactive) in each case.

Consider `C(CCC[Te][Te]CCCCCCOC1CCCCO1)CCOC1CCCCO1` (configuration not stated), for which the GI50 was 15.7 µM (inactive) with COLO 205; 6.81 µM (inactive) with UACC-257; 6.44 µM (inactive) in the experiment with Malme-3M; 17.3 µM (inactive) in the experiment on SNB-75; 15.9 µM (inactive) in the experiment on SF-295; 16 µM (inactive) in the experiment on OVCAR-8. Moreover, the GI50 was 15.7 µM (inactive) in the experiment on DLD-1; 39.6 µM (inactive) in the experiment with SK-OV-3; 13.7 µM (inactive) in the experiment on SN12C; 19.8 µM (inactive) with HCT-116; 14.5 µM (inactive) in the experiment with A549; 9.82 µM (inactive) with MOLT-4. In addition, in the experiment on SR, the GI50 was 7.64 µM (inactive).

Take `CCN(CC)CCOc1ccc(CCc2cc(OC)c(OC)c(OC)c2)cc1`: the GI50 with COLO 205 is 17.3 µM (inactive); with NCI-H522 it was 20 µM (inactive); in the experiment with UACC-257 it was 27.9 µM (inactive); in the experiment on Malme-3M, 43.9 µM (inactive); with SNB-75, 31.3 µM (inactive); in the experiment on OVCAR-4, 55.3 µM (inactive). Moreover, the GI50 was 18.4 µM (inactive) with SF-295; 67.9 µM (inactive) in the experiment with OVCAR-8; 64.1 µM (inactive) in the experiment with DLD-1; > 100 µM (inactive) in the experiment with SN12C; 32.5 µM (inactive) in the experiment with HCT-116; 65.3 µM (inactive) in the experiment on EKVX. For the same molecule, the GI50 was 47.3 µM (inactive) with A549, 21.9 µM (inactive) with MOLT-4 and 31.3 µM (inactive) in the experiment on SR.

For `N#C/C(=C1C=C(Br)/C(=N\O)C=C\1Cl)c1cccc2ccccc12`, the GI50 in the experiment with COLO 205 is 2.29 µM (inactive); in the experiment with NCI-H522, 2.52 µM (inactive); in the experiment on MDA-MB-231, 4.32 µM (inactive); in the experiment with UACC-257, 6.62 µM (inactive); with Malme-3M it was 6.37 µM (inactive); in the experiment with SNB-75, 0.121 µM (active). Besides, the GI50 with PC-3 was 2.89 µM (inactive); with OVCAR-4 it was 2.49 µM (inactive); in the experiment on SF-295, 3.12 µM (inactive); with OVCAR-8, 6.37 µM (inactive); in the experiment with T47D, 2.38 µM (inactive); in the experiment on SK-OV-3, 5.33 µM (inactive). Also, the GI50 in the experiment with SN12C was 8.49 µM (inactive); with HCT-116, 4 µM (inactive); with EKVX it was 10.8 µM (inactive); with A549 it was 9.84 µM (inactive); in the experiment with MDA-N it was 1.61 µM (inactive); in the experiment with MOLT-4, 3.75 µM (inactive). Besides, the GI50 in the experiment on SR is 3.11 µM (inactive).

Consider `Nc1ccc2nc3c(nc2c1)C(=O)c1ccccc1-3`, for which the GI50 with COLO 205, in the experiment on NCI-H522, in the experiment on MDA-MB-231, with UACC-257, with Malme-3M and in the experiment with SNB-75 was > 100 µM (inactive) throughout. The GI50 in the experiment with PC-3, in the experiment with OVCAR-4, with SF-295, in the experiment with OVCAR-8, in the experiment on T47D and with SK-OV-3 was > 100 µM (inactive) throughout. The GI50 was > 100 µM (inactive) with SN12C; > 100 µM (inactive) in the experiment on HCT-116; > 100 µM (inactive) with EKVX; > 100 µM (inactive) in the experiment with A549; > 100 µM (inactive) in the experiment with MDA-N; 20.3 µM (inactive) in the experiment on MOLT-4. For the same molecule, the GI50 in the experiment on SR is > 10 µM (inactive).

Consider `O=C(O)c1ccc(C2C(=O)N[C@@H]3CCC[C@H]23)cc1` (some centres not stated), for which the GI50 with COLO 205, with NCI-H522, in the experiment with UACC-257, in the experiment on Malme-3M, with SNB-75 and in the experiment with OVCAR-4 was > 100 µM (inactive) throughout. In addition, the GI50 in the experiment with SF-295, in the experiment with OVCAR-8, in the experiment on DLD-1, in the experiment with SK-OV-3, in the experiment on HCT-116 and with EKVX was > 100 µM (inactive) in each case. Besides, the GI50 in the experiment with A549 and in the experiment on MOLT-4 was > 100 µM (inactive) in each case.

`COc1ccc(/C(=C/n2ccnc2)C(=O)c2ccc(OC)c(OC)c2)cc1`: the GI50 with COLO 205, with NCI-H522, in the experiment on UACC-257, in the experiment with Malme-3M, in the experiment with SNB-75 and with OVCAR-4 was > 100 µM (inactive) each time. Further, the GI50 with OVCAR-8, in the experiment with DLD-1, in the experiment on SN12C, with HCT-116, with EKVX and with A549 was > 100 µM (inactive) each time. The GI50 in the experiment with MOLT-4 and in the experiment on SR was > 100 µM (inactive) in each case.

On to `COc1ccccc1/C=C(\NC(=O)c1ccccc1)c1nc2ccccc2[nH]1`, for which the GI50 is 28.8 µM (inactive) with COLO 205; 30.3 µM (inactive) with NCI-H522; 31 µM (inactive) in the experiment with UACC-257; 95.7 µM (inactive) in the experiment with Malme-3M; 31.5 µM (inactive) in the experiment on SNB-75; 35 µM (inactive) in the experiment with OVCAR-4. For the same molecule, the GI50 with OVCAR-8 was 38 µM (inactive); with DLD-1 it was 37.3 µM (inactive); in the experiment with SK-OV-3 it was 51.1 µM (inactive); in the experiment on SN12C it was 48.8 µM (inactive); in the experiment with HCT-116 it was 34 µM (inactive); in the experiment on EKVX, 34.7 µM (inactive). Further, the GI50 was 46.8 µM (inactive) with A549 and 36.7 µM (inactive) in the experiment on MOLT-4.
